Earlier results as cited in PMC10200032 (Pharmacological Reports, 2023).
Converted amounts (≈) assume the structure as drawn.

Tested on: CVB4
Details: reference drug in earlier benzoquinazoline studies

- EC50 against CVB4: 29 µg/mL (≈ 119 µM)
SMILES: NC(=O)c1ncn([C@@H]2O[C@H](CO)[C@@H](O)[C@H]2O)n1 [ribavirin]
